From ChEMBL document CHEMBL5335794, “Discovery of novel multifunctional ligands targeting GABA transporters, butyrylcholinesterase, β-secretase, and amyloid β aggregation as potential treatment of Alzheimer's disease” (Eur J Med Chem, 2023)

Tests used:
[1] = target: Acetylcholinesterase (Electrophorus electricus) (UniProt O42275); test: Inhibition of electric eel AChE using acetylthiocholine iodide as substrate at 10 uM preincubated for 5 mins followed by substrate addition and measured after 5 mins by DTNB reagent based Ellman's method relative to control; conditions: time 10.0 min
Chain of Acetylcholinesterase (Electrophorus electricus) (O42275 24-633 limits assumed): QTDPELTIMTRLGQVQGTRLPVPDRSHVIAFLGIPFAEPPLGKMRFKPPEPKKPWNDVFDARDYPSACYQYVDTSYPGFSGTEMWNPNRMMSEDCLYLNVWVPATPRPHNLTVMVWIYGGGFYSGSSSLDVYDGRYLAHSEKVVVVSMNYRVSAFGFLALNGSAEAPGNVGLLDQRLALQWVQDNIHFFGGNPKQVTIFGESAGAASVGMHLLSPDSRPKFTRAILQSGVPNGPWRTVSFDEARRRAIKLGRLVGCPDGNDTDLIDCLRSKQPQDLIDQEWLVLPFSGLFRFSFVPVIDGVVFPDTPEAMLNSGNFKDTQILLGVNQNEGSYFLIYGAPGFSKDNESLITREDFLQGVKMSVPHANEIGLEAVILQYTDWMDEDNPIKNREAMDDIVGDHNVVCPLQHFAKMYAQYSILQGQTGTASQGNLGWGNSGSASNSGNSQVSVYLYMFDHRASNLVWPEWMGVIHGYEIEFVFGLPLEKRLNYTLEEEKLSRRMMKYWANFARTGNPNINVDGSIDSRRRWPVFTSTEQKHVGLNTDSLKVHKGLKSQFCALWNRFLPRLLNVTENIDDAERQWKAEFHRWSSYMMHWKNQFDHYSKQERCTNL

[2] = target: Cholinesterase (Equus caballus) (UniProt P81908); test: Inhibition of equine serum BuChE using butyrylthiocholine iodide as substrate at 10 uM preincubated for 5 mins followed by substrate addition and measured after 5 mins by DTNB reagent based Ellman's method relative to control; conditions: time 10.0 min
Chain of Cholinesterase (Equus caballus) (P81908 whole entry): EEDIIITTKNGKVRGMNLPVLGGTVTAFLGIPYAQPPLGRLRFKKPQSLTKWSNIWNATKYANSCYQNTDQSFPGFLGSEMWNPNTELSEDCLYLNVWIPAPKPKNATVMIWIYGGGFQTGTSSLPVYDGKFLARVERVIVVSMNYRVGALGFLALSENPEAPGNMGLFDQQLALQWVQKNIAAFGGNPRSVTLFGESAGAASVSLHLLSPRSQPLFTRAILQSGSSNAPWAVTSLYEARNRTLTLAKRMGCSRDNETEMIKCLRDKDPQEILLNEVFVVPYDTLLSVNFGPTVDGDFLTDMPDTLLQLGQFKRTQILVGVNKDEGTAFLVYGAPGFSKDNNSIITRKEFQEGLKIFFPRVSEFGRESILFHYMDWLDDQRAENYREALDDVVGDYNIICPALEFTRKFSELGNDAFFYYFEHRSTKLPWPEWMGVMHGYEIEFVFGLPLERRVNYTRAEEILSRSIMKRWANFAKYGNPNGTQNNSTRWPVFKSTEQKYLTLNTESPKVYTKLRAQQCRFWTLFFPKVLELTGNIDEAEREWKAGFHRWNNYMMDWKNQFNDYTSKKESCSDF

Beta-secretase 1 = Beta-secretase 1 (Homo sapiens, UniProt P56817); conditions: dose 50.0 µM, time 60.0 min
Chain of Beta-secretase 1 (P56817 whole entry): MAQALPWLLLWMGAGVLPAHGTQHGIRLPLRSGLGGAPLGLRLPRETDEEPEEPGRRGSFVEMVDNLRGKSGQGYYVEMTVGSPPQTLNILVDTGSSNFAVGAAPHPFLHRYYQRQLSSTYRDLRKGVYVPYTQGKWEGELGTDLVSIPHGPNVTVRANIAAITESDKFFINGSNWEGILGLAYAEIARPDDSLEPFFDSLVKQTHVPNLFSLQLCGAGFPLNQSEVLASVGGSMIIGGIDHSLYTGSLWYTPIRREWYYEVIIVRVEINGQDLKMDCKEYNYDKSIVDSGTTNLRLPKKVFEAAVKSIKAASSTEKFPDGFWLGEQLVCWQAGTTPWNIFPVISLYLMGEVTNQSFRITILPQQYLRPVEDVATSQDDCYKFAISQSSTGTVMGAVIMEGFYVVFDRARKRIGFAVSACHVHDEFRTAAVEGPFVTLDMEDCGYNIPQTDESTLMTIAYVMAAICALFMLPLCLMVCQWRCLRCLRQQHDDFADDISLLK

Cholinesterase = Cholinesterase (Equus caballus, UniProt P81908)
Chain of Cholinesterase (P81908 whole entry): as the sequence (P81908 whole entry) above
Description: Inhibition of equine serum BuChE using butyrylthiocholine iodide as substrate preincubated for 5 mins followed by substrate addition and measured after 5 mins by DTNB reagent based Ellman's method

Row | Structure (SMILES) | inhibition [1] [%] | inhibition [2] [%] | inhibition (Beta-secretase 1) [%] | IC50 (Cholinesterase) [µM]
1 | CN(CCC=C1c2ccccc2CCc2ccccc21)C(CCO)C(=O)NCc1ccc(F)cc1 (centres undefined) | < 10 | 39 | 34 | 
2 | CN(CCC=C1c2ccccc2CCc2ccccc21)C(CCO)C(=O)NCc1ccccc1Cl (centres undefined) | 11 | 24 | 44 | 
3 | CC(=O)NCCC(C(=O)NCc1ccc(Cl)cc1)N(C)CCC=C1c2ccccc2CCc2ccccc21 (centres undefined) | < 10 | 24 | 49 | 
4 | CN(CCC=C1c2ccccc2C=Cc2ccccc21)C(CCO)C(=O)NCc1ccc(Cl)cc1 (centres undefined) | < 10 | 21 | 48 | 
5 | CC(=O)NCCC(C(=O)NCc1ccc(F)cc1)N(C)CCC=C1c2ccccc2CCc2ccccc21 (centres undefined) | < 10 | 47 | 54 | 
6 | CN(CCC=C1c2ccccc2C=Cc2ccccc21)C(CO)C(=O)NCc1ccc(F)cc1 (centres undefined) | < 10 |  | 30 | 3.24
7 | Cc1ccc(CNC(=O)C(CO)N(C)CCC=C2c3ccccc3CCc3ccccc32)cc1 (centres undefined) | < 10 | 45 | 59 | 
8 | CN(CCC=C1c2ccccc2C=Cc2ccccc21)C(CCO)C(=O)NCc1ccc(F)cc1 (centres undefined) | < 10 | 39 | 39 | 
9 | CC(O)CC(C(=O)NCc1ccccc1)N(C)CC/C=C/c1ccccc1-c1ccccc1 (racemic; form 2) | < 10 |  | 4 | 
10 | CC(=O)NCCC(C(=O)NCc1ccc(C)cc1)N(C)CCC=C1c2ccccc2CCc2ccccc21 (centres undefined) | < 10 | 43 | 36 | 
11 | CN(CCC=C1c2ccccc2CCc2ccccc21)C(CO)C(=O)NCc1ccccc1Cl (centres undefined) | < 10 | 52 | 72 | 
12 | CN(CCC=C1c2ccccc2CCc2ccccc21)C(CCO)C(=O)NCc1ccc(Cl)cc1 (centres undefined) | < 10 | 19 | 43 | 
13 | CN(CCC=C1c2ccccc2C=Cc2ccccc21)C(CO)C(=O)NCc1ccccc1 (centres undefined) | < 10 |  | 29 | 4.35
14 | CN(CCC=C1c2ccccc2C=Cc2ccccc21)C(CO)C(=O)NCc1ccc(Cl)cc1 (centres undefined) | 11 | 40 | 77 | 
15 | Cc1ccc(CNC(=O)C(CCO)N(C)CCC=C2c3ccccc3-c3ccccc32)cc1 (centres undefined) | < 10 | 52 | 55 | 
16 | Cc1ccc(CNC(=O)C(CCO)N(C)CCC=C2c3ccccc3CCc3ccccc32)cc1 (centres undefined) | < 10 | 36 | 41 | 
17 | CN(CCC=C1c2ccccc2C=Cc2ccccc21)C(CCO)C(=O)NCc1ccccc1 (centres undefined) | < 10 | 56 | 34 | 
18 | CN(CCC=C1c2ccccc2-c2ccccc21)C(CCO)C(=O)NCc1ccccc1Cl (centres undefined) | < 10 |  | 59 | 1.63
19 | CN(CCC=C1c2ccccc2CCc2ccccc21)C(CO)C(=O)NCc1ccc(F)cc1 (centres undefined) | < 10 | 32 | 48 | 
20 | CC(=O)NCCC(C(=O)NCc1ccccc1)N(C)CCC=C1c2ccccc2CCc2ccccc21 (centres undefined) | < 10 | 60 | 34 | 
21 | CN(CCC=C1c2ccccc2CCc2ccccc21)C(CO)C(=O)NCc1ccccc1 (centres undefined) | < 10 | 38 | 33 | 
22 | CN(CCC=C1c2ccccc2CCc2ccccc21)C(CCO)C(=O)NCc1ccccc1 (centres undefined) | < 10 | 38 | 19 | 
23 | Cc1ccc(CNC(=O)C(CCO)N(C)CCC=C2c3ccccc3C=Cc3ccccc32)cc1 (centres undefined) | < 10 | 35 | 47 | 
24 | Cc1ccc(CNC(=O)C(CO)N(C)CCC=C2c3ccccc3C=Cc3ccccc32)cc1 (centres undefined) | 30 |  | 54 | 6.22
25 | CN(CCC=C1c2ccccc2C=Cc2ccccc21)C(CO)C(=O)NCc1ccccc1Cl (centres undefined) | 12 |  | 52 | 8.23
